In ChEMBL document CHEMBL3244207, “Synthesis and antiallergic activity of 2-hydroxy-3-nitro-1,4-naphthoquinones” (1977):
Calls of active or inactive are those of the source. No cut-off for these calls is given here.

Test system: Rattus norvegicus
Assay: Antiallergic activity in sc dosed Wistar rat assessed as inhibition of passive cutaneous anaphylaxis at Tmax
Format: functional

Structure (SMILES) | ED50 [µmol/kg]
O=C1C(O)=C([N+](=O)[O-])C(=O)c2ccc(F)cc21 | > 500
CCc1cc2c(cc1CC)C(=O)C([N+](=O)[O-])=C(O)C2=O | 27.3
O=C1C(O)=C([N+](=O)[O-])C(=O)c2ccc(-c3ccccc3)cc21 | > 500
Cc1cc2c(cc1C)C(=O)C([N+](=O)[O-])=C(O)C2=O | 11
O=C1C([N+](=O)[O-])=C(O)C(=O)c2c(O)cccc21 | > 500
Cc1ccc2c(c1)C(=O)C(O)=C([N+](=O)[O-])C2=O | 181
O=C1C(O)=C([N+](=O)[O-])C(=O)c2ccccc21 | 141
O=C(O)c1cc(=O)c2c(OCC(O)COc3cccc4oc(C(=O)O)cc(=O)c34)cccc2o1 [CROMOLYN SODIUM] | 13.1
COc1cc2c(cc1OC)C(=O)C([N+](=O)[O-])=C(O)C2=O | 42.8
COc1ccc2c(c1)C(=O)C(O)=C([N+](=O)[O-])C2=O | 51.3
O=C1C(O)=C([N+](=O)[O-])C(=O)c2ccc(Br)cc21 | > 500
CCOc1ccc2c(c1)C(=O)C(O)=C([N+](=O)[O-])C2=O | 68.2
O=C1C(O)=C([N+](=O)[O-])C(=O)c2cc3c(cc21)CCCC3 | 7.3
Cc1cccc2c1C(=O)C(O)=C([N+](=O)[O-])C2=O | 76.2
Cc1ccc2c(c1)C(=O)C([N+](=O)[O-])=C(O)C2=O | 63.9

Test system: Rattus norvegicus
Assay: Antiallergic activity in po dosed Wistar rat assessed as inhibition of passive cutaneous anaphylaxis administered 10 mins prior to antigen-challenge
Format: functional

Structure (SMILES) | ED50 [µmol/kg]
Cc1cc2c(cc1C)C(=O)C([N+](=O)[O-])=C(O)C2=O | 100
O=C1C(O)=C([N+](=O)[O-])C(=O)c2cc3c(cc21)CCCC3 | 100

Test system: Rattus norvegicus
Assay: Antiallergic activity in Wistar rat assessed as inhibition of passive cutaneous anaphylaxis up to 500 uM/kg, sc
Format: functional, organism-based

Structure (SMILES) | inhibition
CC1(C)C(=O)C([N+](=O)[O-])=C(O)c2ccccc21 | inactive
Cc1c(O)c([N+](=O)[O-])c(O)c2ccccc12 | inactive
Cc1ccc2c(c1)C(O)=C([N+](=O)[O-])C(=O)C2(C)C | inactive
Cc1cccc2c1C(C)(C)C(=O)C([N+](=O)[O-])=C2O | inactive
